The record followed here is patent publication US9102648B1, “Bioavailable diacylhydrazine ligands for modulating the expression of exogenous genes via an ecdysone receptor complex” (Intrexon Corporation, priority 2003, dated 2015).

The nature of series [1]: Aqueous equilibrium solubility in pH 7.4 buffer. The following applies: pH 7.4 aqueous phosphate buffer, pH 7.4, aqueous buffer, thermodynamic from solid.
Description: (§2) Equilibrium solubility was measured in pH 7.4 aqueous buffer. The buffer was prepared by adjusting the pH of a 0.07 M solution of NaH2PO4 to pH 7.4 with 10 N NaOH. […] At least 1 mg of powder was combined with 1 mL of buffer to make >1 mg/mL mixture. These samples were shaken for ≧2 hours and left to stand overnight at room temperature. The samples were then filtered through a 0.45-μm Nylon syringe filter that was first saturated with the sample. The filtrate was sampled twice, consecutively. The filtrate was assayed by HPLC against standards prepared in methanol.
The subject of series [2] is mutated ecdysone receptor-based gene switch. Put plainly: In vivo SEAP induction, ligand administered in rodent chow. Also on record: species or system C57BL/6 mouse. Conditions: feed 2 g/kg ad libitum. How it is done:
Applicants' ligands are useful in various applications including gene therapy, expression of proteins of interest in host cells, production of transgenic organisms, and cell-based assays. In vivo induction of a reporter enzyme with various ligands of the present invention was evaluated in a C57BL/6 mouse model system containing a gene switch.
Each element of the gene switch was on a separate plasmid. Receptor expression was under the control of a CMV promoter (SEQ ID NO: 15). Induction was evaluated by the amount of reporter protein expressed in the presence of ligand.
SEAP expression in serum of mice was evaluated after electroporation of the gene switch into mouse quadriceps. Mice were anesthetized with 2 μL/g of a mixture of ketamine (100 mg/mL) and xylazine (20 mg/mL). Animals were then shaved, DNA vectors injected into the muscle in a volume of 2×50 μL polyglutamic acid (12 mg/mL water), electrode conductivity gel applied, and an electrode caliber (1 cm×1 cm; model 384) was placed on hind leg. The muscle was electroporated with 200 V/cm, 8 times, for 20 msec/pulse, at 1 sec time intervals. The transverse electrical field direction was reversed after the animals received half of the pulses. Electroporation was performed with an ECM 830 electroporator from BTX Molecular Delivery Systems.
In some experiments mice received an intraperitoneal injection (IP) of 2.6 μmol of ligand in 50 μL of DMSO 3 days after electroporation of the gene switch. In other experiments the concentration of ligand was decrease to 26 nmol/50 μL of DMSO/mouse. SEAP expression was evaluated 2-11 days after ligand administration. In other experiments ligand was administered in rodent chow. The chow was prepared by dissolving 2 g of ligand in 20 mL of acetone and adding it to 1 kg of LabDiet 5010 autoclavable chow from Purina Mills. This was thoroughly mixed in a Hobart mixer and then mixed for an additional 15 min in a Cross Blend mixer. Animals received chow ad libitum for 1, 2, or 3 days. All values are the average from four animals. Background SEAP in sera from animals treated with vector alone without ligand addition was 0-11 ng/mL serum.
Mouse serum was obtained by centrifugation of blood acquired by retroorbital bleeding with a small glass capillary tube. SEAP quantification was determined using a Clontech Great Escape chemiluminescence kit and by comparison with the Clontech SEAP standard.
Table 11: Induction of SEAP in C57BL/6 mice with GS™-E ligand or RG-103309 administered in rodent chow. SEAP expression in serum of mice was evaluated after electroporation of the gene expression cassettes into mouse quadriceps. Mice received GS™-E ligand or RG-103309 in their feed (2 g/kg) 3 days after electroporation. Feed was administered ad libitum for 1, 2, or 3 days. After each interval ligand-treated feed was removed and animals received untreated feed. Values are the average from 4 animals.

Series [3] is described as follows: Bi-directional permeability, CACO-2. Format: in vitro ADME. In a few lines: (§1)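 Bidirectional (A-to-B, B-to-A) transport of 10 μM compound across confluent Caco-2 monolayers at 37° C., pH 7.0±0.2 HBSS buffer with HEPES and glucose. LC/MS analysis of receiver samples at 1 and 2 hours in duplicate; cell-free membrane control and post-assay Lucifer yellow flux included.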

The test system of another series is Caco-2 monolayers. Put plainly: Bi-directional permeability, CACO-2. Format: in vitro ADME. In a few lines: as §1
Series [4] in a line: Partition coefficient Log (D), 1-octanol / pH 7.4 buffer. The series is classed as physicochemical. The following applies: water-saturated 1-octanol / pH 7.4 buffer, room temperature. In a few lines: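 Octanol/pH 7.4 buffer partition at room temperature, compound added from 10 mM DMSO stock with 100 μM testosterone internal control; vortexed 60 min, centrifuged. Both layers diluted and quantified by LC/MS; Log D taken as log of the peak-area ratio.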

The nature of series [5]: physchem. The following applies: pH 7.4, aqueous buffer, thermodynamic from solid.
Description: as §2
Series [6] is described as follows: physchem. Conditions: water, kinetic from dmso stock.
Description: Aqueous solutions are prepared as follows in triplicate: 50 μl of a 10,000 ppm solution (2,000 μg of solid dissolved in 200 μl of methanol) of the substrate in methanol or DMSO is added to 1 mL of de-ionized water in a 2 dram or smaller vial with magnetic stirring. Stirring is continued overnight at ambient temperature. The slurry is taken up into a syringe with a luer tip. The contents are passed through a new 13 mm 0.2 ρM Acrodisc filter (tuffryn or glass fiber) into an autosampler bottle. For preparation of calibration standard solutions: dilutions of the 10,000 ppm solution were prepared at 10, 5, 1, 0.5, and 0.2 ppm. […] For more soluble materials, dilution of the samples into this range is preferable to increasing the calibration range because the non-linearity of the response results in less useful calibration curves. However a shift in the range of calibration standards is required for very insoluble compounds.
Chromatography of the samples was then preformed. For most diacylhydrazines the following conditions were adequate for the measurement. Other columns and gradients may be substituted as appropriate.
Analysis of the test samples is conducted as follows: Each solubility replicate is analyzed in duplicate. […] Standard curves are obtained from duplicate injections of the standards. The concentration of the substrate is determined by calculation from the equation relating concentration and response.
[7] abbreviates: Caco-2, pH 7, cell-free (blank) membrane, 10 μM, read-out: Percent Recovery Blank.
[8] abbreviates: human, Caco-2, pH 7, Caco-2, apical-to-basolateral, 10 μM, read-out: Percent Recovery A-to-B.
Where [9] appears, read: human, Caco-2, pH 7, Caco-2, basolateral-to-apical, 10 μM, read-out: Percent Recovery B-to-A.
[10] abbreviates: human, Caco-2, pH 7, Papp, A-to-B Avg.
The mark [11] stands for this setting: human, Caco-2, pH 7, Papp, A-to-B Rep. 1.
Setting [12] is: human, Caco-2, pH 7, Papp, A-to-B Rep. 2.
[13] abbreviates: human, Caco-2, pH 7, Papp, B-to-A Avg.
The mark [14] stands for this setting: human, Caco-2, pH 7, Papp, B-to-A Rep. 1.
[15] abbreviates: human, Caco-2, pH 7, Papp, B-to-A Rep. 2.

≈ marks a conversion by molar mass, not a printed value. Where two headings read alike, the source gives them in different places. Some results are limits rather than exact numbers.

With `CCc1c(OC)cccc1C(=O)NN(C(=O)c1cc(C)cc(C)c1)C(C)(C)C` [RG-102240, N-(3-methoxy-2-ethylbenzoyl)-N′-(3,5-dimethylbenzoyl)-N′-tert-butylhydrazine], in series [1], the solubility amounted to 0.7 µg/mL (≈ 1.83 µM). Moreover, the results for the “Secreted Alkaline Phosphatase Day 2” value in series [2] (dose period 1 day), in series [2] (dose period 2 day) and in series [2] (dose period 3 day) were 7,302 ng/ml mouse sera, 13,046 ng/ml mouse sera and 8,064 ng/ml mouse sera, respectively. Besides, the figures for the “Secreted Alkaline Phosphatase Day 3” value in series [2] (dose period 1 day), in series [2] (dose period 2 day) and in series [2] (dose period 3 day) were 7,670 ng/ml mouse sera, 15,831 ng/ml mouse sera and 11,392 ng/ml mouse sera, respectively. The “Secreted Alkaline Phosphatase Day 7” value was 3,784 ng/ml mouse sera in series [2] (dose period 1 day), 8,816 ng/ml mouse sera in series [2] (dose period 2 day) and 8,372 ng/ml mouse sera in series [2] (dose period 3 day). For the same compound, the Papp at 2 h, 10 µM in series [3] (Caco-2, pH 7, cell-free (blank) membrane, 10 μM, read-out: Papp Blank) was found to be 28.4 ×10⁻⁶ cm/s. For the same compound, the recovery at 2 h, 10 μM in series [3] (setting [7]) was 78%; in series [3] (setting [8]), 94%; in series [3] (setting [9]), 87%. The apical-to-basolateral permeability (Papp A→B) at 2 h, 10 µM was determined as 31.8 ×10⁻⁶ cm/s in series [3] (human, Caco-2, pH 7, Caco-2, 10 μM, average of 2 replicates, read-out: Papp, A-to-B Avg); 32.3 ×10⁻⁶ cm/s in series [3] (human, Caco-2, pH 7, Caco-2, 10 μM, replicate 1, read-out: Papp, A-to-B Rep. 1); 31.4 ×10⁻⁶ cm/s in series [3] (human, Caco-2, pH 7, Caco-2, 10 μM, replicate 2, read-out: Papp, A-to-B Rep. 2). Besides, the Papp B→A at 2 h, 10 µM in series [3] (human, Caco-2, pH 7, Caco-2, 10 μM, average of 2 replicates, read-out: Papp, B-to-A Avg) is 23.5 ×10⁻⁶ cm/s; in series [3] (human, Caco-2, pH 7, Caco-2, 10 μM, replicate 1, read-out: Papp, B-to-A Rep. 1) it was 23.3 ×10⁻⁶ cm/s; in series [3] (human, Caco-2, pH 7, Caco-2, 10 μM, replicate 2, read-out: Papp, B-to-A Rep. 2), 23.7 ×10⁻⁶ cm/s. The efflux ratio at 2 h, 10 μM in series [3] (human, pH 7, Caco-2 efflux ratio, read-out: Papp B-A / Papp A-B Ratio) is 0.7. The “Absorption Potential” value in the series on Caco-2 monolayers (classification from Papp(A-to-B)) is “High (Papp(A-to-B) ≧ 1.0 × 10^−6 cm/s High)”. Moreover, the “Significant Efflux” value in the series on Caco-2 monolayers (classification from Papp(B-to-A) and ratio) is on record as “No”. For the same compound, the “Log(D) Octanol/pH 7.4” value in series [4] was 3.4.
In series [3] (Caco-2, pH 7, Papp Blank), `Cc1cc(C)cc(C(=O)N(NC(=O)c2ccc3c(c2C)OCCO3)C(C)(C)C)c1` [RG-102317, N-(5-methyl-1,4-benzodioxan-6-carbonyl)-N′-(tert-butyl)-N′-(3,5-dimethylbenzoyl)hydrazine] displayed a Papp at 2 h, 10 µM of 27.9 ×10⁻⁶ cm/s. The recovery at 2 h, 10 μM in series [3] (setting [7]) was determined as 87%; in series [3] (setting [8]) it was 91%; in series [3] (setting [9]) it was 86%. The efflux ratio at 2 h, 10 μM in series [3] (human, Caco-2, pH 7) came out at 0.8. In addition, the Papp A→B at 2 h, 10 µM in series [3] (setting [10]) was determined as 28 ×10⁻⁶ cm/s; in series [3] (setting [11]), 28.6 ×10⁻⁶ cm/s; in series [3] (setting [12]) it was 27.3 ×10⁻⁶ cm/s. Besides, the apparent permeability from basolateral to apical (Papp B→A) at 2 h, 10 µM in series [3] (setting [13]) was found to be 21.1 ×10⁻⁶ cm/s; in series [3] (setting [14]) it was 21 ×10⁻⁶ cm/s; in series [3] (setting [15]), 21.2 ×10⁻⁶ cm/s. Besides, in the series on Caco-2 monolayers (Caco-2), the “Significant Efflux” value is on record as “No”. Moreover, the “Log(D) Octanol/pH 7.4” value in series [4] is listed as 3.6. The compound further had a solubility in the series “physchem [5]” of 4.3 µg/mL (≈ 10.8 µM). In the series “physchem [6]”, this compound returned a solubility (kinetic) of 10.1 µM (≈ 4 µg/mL).
The compound `CCC(N(NC(=O)c1cccc(C)c1C)C(=O)c1cc(C)cc(C)c1)C(C)(C)C` (centres unmarked) [RG-103309, 3,5-dimethyl-benzoic acid N′-(2,3-dimethyl-benzoyl)-N-(1-ethyl-2,2-dimethyl-propyl)-hydrazide] displayed a solubility in series [1] of at most 0.2 µg/mL. For the same compound, the figures for the “Secreted Alkaline Phosphatase Day 2” value in series [2] (dose period 1 day), in series [2] (dose period 2 day) and in series [2] (dose period 3 day) were 9,003 ng/ml mouse sera, 6,971 ng/ml mouse sera and 11,126 ng/ml mouse sera, respectively. Besides, the “Secreted Alkaline Phosphatase Day 3” value in series [2] (dose period 1 day) is on record as 14,850 ng/ml mouse sera; in series [2] (dose period 2 day), 16,518 ng/ml mouse sera; in series [2] (dose period 3 day), 20,373 ng/ml mouse sera. In addition, the “Secreted Alkaline Phosphatase Day 7” value was 5,172 ng/ml mouse sera in series [2] (dose period 1 day), 7,460 ng/ml mouse sera in series [2] (dose period 2 day) and 11,549 ng/ml mouse sera in series [2] (dose period 3 day). Moreover, in series [3] (Caco-2, pH 7, Papp Blank), the Papp at 2 h, 10 µM stood at 23.6 ×10⁻⁶ cm/s. Besides, the recovery at 2 h, 10 μM in series [3] (Caco-2, pH 7, Percent Recovery Blank) is 70%; in series [3] (human, Caco-2, pH 7, Percent Recovery A-to-B), 74%; in series [3] (human, Caco-2, pH 7, Percent Recovery B-to-A) it was 75%. Further, in series [3] (human, Caco-2, pH 7), the efflux ratio at 2 h, 10 μM worked out at 1.3. Further, the Papp A→B at 2 h, 10 µM in series [3] (setting [10]) was 24.5 ×10⁻⁶ cm/s; in series [3] (setting [11]) it was 25.2 ×10⁻⁶ cm/s; in series [3] (setting [12]), 23.8 ×10⁻⁶ cm/s. Besides, the Papp B→A at 2 h, 10 µM in series [3] (setting [13]), in series [3] (setting [14]) and in series [3] (setting [15]) was 32.5 ×10⁻⁶ cm/s in each case. Also, the “Significant Efflux” value with Caco-2 monolayers (Caco-2) is on record as “No”. The “Log(D) Octanol/pH 7.4” value in series [4] is on record as 3.0.
